Like-named read-outs stand apart in the source and are kept apart here.
Assays:
[1] = Stability in plasma, 6 h incubation at 37°C (dog); assay type: in vitro ADME; conditions: beagle
Procedure: The phosphate buffer (100 mM) and sodium hydroxide solution (1.0 M) were prepared in deionized water. […] PPB was determined by equilibrium dialysis method. An aliquot (150 μL) of NHPPC spiked plasma and phosphate buffer (pH 7.4) was added into the donor side and the receiver side of each designated well. The plate was covered with adhesive sealing film to prevent evaporation and placed in a water-bath shaker kept at 37°C for 6 h with a rate of 50 rpm. […] At the end of 6 h, aliquots were taken from each side of each well (n = 3) and kept in a −20°C freezer prior to analysis. The stability, device recovery and PPB were calculated using the following equations: Remaining at 6 h (%)=C6h/C0h×100%, Device recovery (%)=CDonor+CReceiver/C6h×100%, PPB (%)=CDonor−CReceiver/CDonor×100%.

[2] = In vitro metabolic stability in rat liver microsomes; assay type: in vitro ADME; conditions: for remaining at 1 h, 1 µM: liver microsomes, pH 7.4, rat liver microsomes, 60 min, read-out: percent remaining
Procedure: The phosphate buffer (pH 7.4, 100 mM) and (300 mM) were prepared in deionized water. NADP and IA were dissolved in phosphate buffer and MgCl2 solution and then added 20 μL IDH (18 units/mg protein) and mixed. NHPPC (1 mM) and positive control drug were prepared by dilution using DMSO and then the NHPPC and positive control drug working solution (50 μM) were obtained by dilution using methanol: H2O (1:1, v/v) mixture. Pooled human, rat and dog liver microsomes were added to phosphate buffer pH7.4 to a concentration 20 mg/mL. NHPPC was incubated with liver microsomes. The incubation solution of the final reaction conditions contained 50 mM potassium phosphate buffer (pH 7.4), 0.5 mg protein/mL microsomes, 3 mM MgCl2, 2 mM NADPH and 1 μM NHPPC or positive control drug in a final volume of 100 μL. In sample and positive control groups, NADPH was added into the incubation solutions. In the negative control group, water (the replacement of NADPH) was added into the incubation solutions. Samples were incubated aerobically in a shaking water bath at 37°C and the reaction was terminated by adding 300 μL of ice cold acetonitrile (contain 100 ng/mL IS) at different interval 0, 5, 10, 20, 30 and 60 min. While positive control and negative control were incubated aerobically in a shaking water bath at 37°C for 0 and 60 min, respectively. NHPPC and control concentrations were determined by LC-MS/MS at each time point (n = 3). Calculation of t1/2 and CLint was performed by using following equations, where K is the elimination rate constant (min^−1) and QH is hepatic blood flow (mL/min/kg). t1/2=0.693/KCLint,in vitro=VD×KVD=Volume of reaction mixture(mL)/mg of protein per reation.
Hepatic intrinsic clearance was estimated by using the scaling factors and calculated by using the following equation (Lave et al. [1997]). CLint,in vivo=CLint×mg microsomal protein per liver×g liver per kg body weight, Cint,H=CLint,in vivo×QH/CLint,in vivo+QH,EH=CLint,H/QH.

[3] = target: T1, CYP1A2 (Homo sapiens, UniProt P05177); experiment: CYP isozyme inhibition in human liver microsomes; assay type: in vitro ADME; conditions: calculated from inhibition at 3 μM
T1 construct: tissue BD Gentest; host or cells: pooled human liver microsomes
T1 sequence (P05177 1-516): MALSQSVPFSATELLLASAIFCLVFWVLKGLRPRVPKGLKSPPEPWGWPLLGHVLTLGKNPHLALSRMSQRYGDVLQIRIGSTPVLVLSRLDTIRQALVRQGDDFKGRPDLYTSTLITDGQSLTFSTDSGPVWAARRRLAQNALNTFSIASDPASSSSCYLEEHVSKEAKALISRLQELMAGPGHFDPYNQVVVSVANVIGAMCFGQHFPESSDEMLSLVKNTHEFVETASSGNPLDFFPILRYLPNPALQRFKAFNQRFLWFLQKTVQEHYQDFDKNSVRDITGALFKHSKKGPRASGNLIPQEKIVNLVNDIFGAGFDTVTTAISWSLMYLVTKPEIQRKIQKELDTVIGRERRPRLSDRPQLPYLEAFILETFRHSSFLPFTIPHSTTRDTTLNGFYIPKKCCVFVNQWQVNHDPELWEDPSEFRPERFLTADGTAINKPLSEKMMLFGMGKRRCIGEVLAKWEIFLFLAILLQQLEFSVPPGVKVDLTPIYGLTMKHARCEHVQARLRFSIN
Procedure: (§1) The stock solutions of the probe substrates phenacetin (20.0 mM), diclofenac (20.0 mM), S-mephenytoin (30 mM), dextromethorphan (10.0 mM), midazolam (10.00 mM) and testosterone (50.0 mM) were prepared using methanol, while α-Naphtoflavone (3.0 mM), sulfaphenazole (3.0 mM), N-3-benzylnirvanol (3.0 mM), quinidine (3.0 mM), ketoconazole (3.0 mM) and NHPPC (10.0 mM) were prepared using DMSO, and diluted with phosphate buffer (PB, 100 mM, pH 7.4) before added into the incubation system. The organic solvents in the final incubate were no more than 0.20%. The incubation medium was 100 mM phosphate buffered saline, and the final incubation volume was 200 μL containing 25 pmol/mL human liver microsomes CYP enzyme, probe substrate, 1 mM NADPH and NHPPC at 3.00 μM. The reactions were initiated after 5 min pre-incubation at 37°C and were terminated by the addition of 400 μL ice-cold acetonitrile. All incubations were conducted in triplicate, and the samples were stored at −80°C until analysis. Calculation of IC50 was performed by using following equations, where C is concentration of test compounds.

[4] = target: T2, CYP2C19 (Homo sapiens, UniProt P33261); experiment: CYP isozyme inhibition in human liver microsomes; assay type: in vitro ADME; conditions: calculated from inhibition at 3 μM
T2 construct: tissue BD Gentest; host or cells: pooled human liver microsomes
Procedure: as §1

[5] = target: T3, CYP2C9 (Homo sapiens, UniProt P11712); experiment: CYP isozyme inhibition in human liver microsomes; assay type: in vitro ADME; conditions: calculated from inhibition at 3 μM
T3 construct: tissue BD Gentest; host or cells: pooled human liver microsomes
Procedure: as §1

[6] = target: T4, CYP2D6 (Homo sapiens, UniProt P10635); experiment: CYP isozyme inhibition in human liver microsomes; assay type: in vitro ADME; conditions: calculated from inhibition at 3 μM
T4 construct: tissue BD Gentest; host or cells: pooled human liver microsomes
Procedure: as §1

[7] = In vivo pharmacokinetic study in dogs; set-up: species or system male Beagle dogs; conditions: dog; for MRT inf: read-out: MRT0-∞
[8] = system: rabbit model; experiment: Preliminary efficacy experiment of rabbit model in vivo; conditions: compared with avanafil, data not published
[9] = male, Beagle, plasma, IV 1 mg/kg
[10] = male, Beagle, plasma, PO 1 mg/kg

T3 sequence (P11712 whole entry): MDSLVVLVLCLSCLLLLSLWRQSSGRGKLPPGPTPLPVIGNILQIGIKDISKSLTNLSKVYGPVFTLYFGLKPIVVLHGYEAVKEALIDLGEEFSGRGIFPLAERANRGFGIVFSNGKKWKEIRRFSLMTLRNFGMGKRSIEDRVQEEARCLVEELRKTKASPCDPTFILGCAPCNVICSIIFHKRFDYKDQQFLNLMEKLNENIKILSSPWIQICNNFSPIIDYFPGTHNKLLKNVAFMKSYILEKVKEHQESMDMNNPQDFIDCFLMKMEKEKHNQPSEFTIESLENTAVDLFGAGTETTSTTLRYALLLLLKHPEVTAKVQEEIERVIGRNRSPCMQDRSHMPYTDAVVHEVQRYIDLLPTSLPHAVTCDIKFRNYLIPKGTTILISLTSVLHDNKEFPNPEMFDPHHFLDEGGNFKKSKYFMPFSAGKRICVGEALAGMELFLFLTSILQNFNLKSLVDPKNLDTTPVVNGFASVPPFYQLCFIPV
T2 sequence (P33261 whole entry): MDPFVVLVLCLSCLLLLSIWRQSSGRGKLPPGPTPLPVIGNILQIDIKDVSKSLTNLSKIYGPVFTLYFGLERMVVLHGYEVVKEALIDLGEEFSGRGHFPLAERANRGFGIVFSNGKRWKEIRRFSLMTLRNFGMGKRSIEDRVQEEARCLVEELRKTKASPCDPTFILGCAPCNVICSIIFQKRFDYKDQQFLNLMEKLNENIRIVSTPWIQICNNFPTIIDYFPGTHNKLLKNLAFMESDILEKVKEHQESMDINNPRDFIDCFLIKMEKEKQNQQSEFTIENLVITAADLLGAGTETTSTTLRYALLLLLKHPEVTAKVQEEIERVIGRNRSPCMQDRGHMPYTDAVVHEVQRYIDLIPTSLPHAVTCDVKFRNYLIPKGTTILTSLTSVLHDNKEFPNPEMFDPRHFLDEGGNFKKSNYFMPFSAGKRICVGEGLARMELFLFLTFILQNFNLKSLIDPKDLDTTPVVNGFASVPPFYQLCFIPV
T4 sequence (P10635 whole entry): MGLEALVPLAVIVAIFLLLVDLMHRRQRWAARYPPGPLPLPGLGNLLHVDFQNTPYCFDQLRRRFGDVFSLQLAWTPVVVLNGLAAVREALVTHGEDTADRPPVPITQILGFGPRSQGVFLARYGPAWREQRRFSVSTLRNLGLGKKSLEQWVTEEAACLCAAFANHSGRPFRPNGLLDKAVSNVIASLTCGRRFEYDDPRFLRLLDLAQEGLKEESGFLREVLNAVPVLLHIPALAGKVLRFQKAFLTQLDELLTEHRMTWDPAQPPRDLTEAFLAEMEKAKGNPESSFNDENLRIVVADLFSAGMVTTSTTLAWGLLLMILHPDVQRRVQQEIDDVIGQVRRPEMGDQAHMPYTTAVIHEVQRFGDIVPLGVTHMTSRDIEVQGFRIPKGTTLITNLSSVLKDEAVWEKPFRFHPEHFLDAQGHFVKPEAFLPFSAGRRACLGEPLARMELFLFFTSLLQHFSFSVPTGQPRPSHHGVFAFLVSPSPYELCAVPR

Structure (SMILES): COc1ccc(CNc2nc(N3CCC[C@H]3CO)ncc2C(=O)NCc2ccccn2)cc1Cl [NHPPC, N-(2-pyridylmethyl)-2-hydroxiymethyl-1-pyrrolidinyl-4-(3-chloro-4-methoxy-benzylamino)-5-pyrimidine-carboxamide]
- remaining at 6 h, 0.2 µM ([1]; 0.2 µM, n = 3, read-out: Mean drug remaining %): 99.6 ± 0.53%
- remaining at 6 h, 1 µM ([1]; 1 µM, n = 3, read-out: Mean drug remaining %): 100.4 ± 0.98%
- remaining at 6 h ([1]; mean of 0.2 and 1 µM, read-out: Mean drug remaining %): 100 ± 1.24%
- half-life at 1 µM ([2]; pH 7.4, rat liver microsomes): 0.708 h
- microsomal CLint at 1 µM ([2]; pH 7.4, rat liver microsomes, read-out: CLint, ivtro): 23.3 µL/min/mg
- k el at 1 µM ([2]; pH 7.4, rat liver microsomes, read-out: Ke (converted)): 0.000272 s⁻¹
- remaining at 1 h, 1 µM ([2]; rat, in the presence of NADPH, 1 μM): 42.8%
- remaining at 1 h, 1 µM ([2]; rat, without NADPH regenerating system): 102%
- ranking for clearance ([2]; rat, ranking criteria of Houston 1994, Kerns and Di 2008): middle clearance
- CLH ([2]; rat, scaled from liver microsomes): 27.5 mL/min/kg
- IC50 [3]: > 100 µM
- IC50 [4]: > 100 µM
- IC50 [5]: 21.9 µM
- IC50 [6]: > 100 µM
- K10 ([7]; IV 1 mg/kg): 0.52 ± 0.03 h⁻¹
- K10 ([7]; PO 1 mg/kg): 0.45 ± 0.06 h⁻¹
- BA ([7]; PO 1 mg/kg vs IV 1 mg/kg, 1 mg/kg): 53.1 ± 14.2%
- AUC(0-inf) [7, 9]: 685 ± 40 ng·h/mL
- AUC(0-t) [7, 9]: 679 ± 38.5 ng·h/mL
- clearance [7, 9]: 24.3 mL/min/kg
- half-life [7, 9]: 1.33 ± 0.06 h
- MRT inf [7, 9]: 1.15 ± 0.04 h
- Vd ([7]; male, Beagle, plasma, IV 1 mg/kg, read-out: Vss): 1.68 ± 0.08 L/kg
- AUC(0-inf) [7, 10]: 364 ± 97.4 ng·h/mL
- AUC(0-t) [7, 10]: 351 ± 96.1 ng·h/mL
- Cmax [7, 10]: 144 ± 35.3 ng/mL
- Tmax [7, 10]: 0.5 h
- half-life [7, 10]: 1.57 ± 0.22 h
- MRT inf [7, 10]: 2.54 ± 0.15 h
- Tmax ([7]; male, beagle, plasma, PO 1 mg/kg): 0.5 to 1 h
- preliminary efficacy [8]: stronger than avanafil

— publication PMC6567057, “Pharmacokinetic, metabolic stability, plasma protein binding and CYP450s inhibition/induction assessment studies of N-(2-pyridylmethyl)-2-hydroxiymethyl-1-pyrrolidinyl-4-(3-chloro-4-methoxy-benzylamino)-5-pyrimidine-carboxamide as potential type 5 phosphodiesterase inhibitors” (Animal Cells and Systems, 2019)
